Our source for the IC50 values is patent US8735414B2 (priority 2009, dated 2014).

The experiment has as its system bicistronic HCV replicon (replicon RNA, GenBank Accession No. AJ242654). Description: HCV Replicon Assay. Format: cell-based. To be noted: Hepatitis C virus, 72 h, read-out: Replicon IC50. On the technique in general: Replicon systems follow genome replication, usually without infectious particles.
Take `CCc1cc2c(cc1F)c(C(N)=O)c(-c1ccc(S(=O)(=O)N[C@@H](C)C(F)(F)F)cn1)n2-c1cccnc1` [compound 1040, 6-ethyl-5-fluoro-1-(pyridin-3-yl)-2-(5-{[(2S)-1,1,1-trifluoropropan-2-yl]sulfamoyl}pyridin-2-yl)-1H-indole-3-carboxamide]: the IC50 (usually the concentration that gives 50% inhibition) is less than 0.5 µM.
Consider `C[C@@H](NS(=O)(=O)c1ccc(-c2c(C#N)c3cc(F)c(OC(F)F)cc3n2-c2ccccn2)nc1)C(F)(F)F` [compound 670, 6-[3-cyano-6-(difluoromethoxy)-5-fluoro-1-(pyridin-2-yl)-1H-indol-2-yl]-N-[(2R)-1,1,1-trifluoropropan-2-yl]pyridine-3-sulfonamide], for which the IC50 is less than 0.5 µM.
Turning to `N#Cc1c(-c2ncc(S(=O)(=O)NC(CF)CF)cn2)n(C2CCC2)c2cc(CC(F)F)ccc12` [compound 591, 2-[3-cyano-1-cyclobutyl-6-(2,2-difluoroethyl)-1H-indol-2-yl]-N-(1,3-difluoropropan-2-yl)pyrimidine-5-sulfonamide], the IC50 is less than 0.5 µM.
Regarding `Cc1cc2c(cc1F)c(C#N)c(-c1ccc(S(=O)(=O)NC(C)(C)C)cn1)n2-c1ncccn1` [compound 824, N-tert-butyl-6-[3-cyano-5-fluoro-6-methyl-1-(pyrimidin-2-yl)-1H-indol-2-yl]pyridine-3-sulfonamide], the IC50 is less than 0.5 µM.
For `Cc1cc2c(cc1F)cc(-c1ccc(S(=O)(=O)N[C@@H](C)C(F)(F)F)cn1)n2C1CCCC1` [compound 760, 6-(1-cyclopentyl-5-fluoro-6-methyl-1H-indol-2-yl)-N-[(2S)-1,1,1-trifluoropropan-2-yl]pyridine-3-sulfonamide] the value was less than 0.5 µM.
For `C[C@@H](NS(=O)(=O)c1ccc(-c2c(C#N)c3cc(Cl)ccc3n2C2CCC2)nc1)C(F)(F)F` [compound 316, 6-(5-chloro-3-cyano-1-cyclobutyl-1H-indol-2-yl)-N-[(2R)-1,1,1-trifluoropropan-2-yl]pyridine-3-sulfonamide] the value was less than 0.5 µM; for `CCc1cc2c(cc1F)c(C#N)c(-c1ccc(S(=O)(=O)N[C@@H](C)C(F)(F)F)cn1)n2-c1ccc(C)cc1` [compound 1004, 6-[3-cyano-6-ethyl-5-fluoro-1-(4-methylphenyl)-1H-indol-2-yl]-N-[(2S)-1,1,1-trifluoropropan-2-yl]pyridine-3-sulfonamide], less than 0.5 µM.
For the molecule `Cc1cc2c(cc1F)c(C(=O)O)c(-c1ncc(S(=O)(=O)N[C@@H](C)C(F)(F)F)cn1)n2C1CCC1` [compound 775, 1-cyclobutyl-5-fluoro-6-methyl-2-(5-{[(2S)-1,1,1-trifluoropropan-2-yl]sulfamoyl}pyrimidin-2-yl)-1H-indole-3-carboxylic acid], the IC50 lay within 0.5 to 2 µM.
With `Cc1c(F)c(OC(F)F)cc2c1c(C#N)c(-c1ccc(S(=O)(=O)N[C@@H](C)C(F)(F)F)cn1)n2C1CCC1` [compound 810, 6-[3-cyano-1-cyclobutyl-6-(difluoromethoxy)-5-fluoro-4-methyl-1H-indol-2-yl]-N-[(2S)-1,1,1-trifluoropropan-2-yl]pyridine-3-sulfonamide], the IC50 was less than 0.5 µM.
On to `C[C@H](NS(=O)(=O)c1ccc(-c2c(C#N)c3cc(F)c(C4(C)OCCO4)cc3n2-c2ncccn2)nc1)C(F)(F)F` [compound 927, 6-[3-cyano-5-fluoro-6-(2-methyl-1,3-dioxolan-2-yl)-1-(pyrimidin-2-yl)-1H-indol-2-yl]-N-[(2S)-1,1,1-trifluoropropan-2-yl]pyridine-3-sulfonamide], for which the concentration for half-maximal inhibition (IC50) is less than 0.5 µM.
For `C[C@H](NS(=O)(=O)c1ccc(-c2cc3cc(F)c(OC(F)F)cc3n2C2CCC2)nc1)C(F)(F)F` [compound 727, 6-[1-cyclobutyl-6-(difluoromethoxy)-5-fluoro-1H-indol-2-yl]-N-[(2S)-1,1,1-trifluoropropan-2-yl]pyridine-3-sulfonamide], the IC50 was less than 0.5 µM.
For `[2H]C([2H])(C)c1cc2c(cc1F)c(C#N)c(-c1ccc(S(=O)(=O)N[C@@]([2H])(C)C(F)(F)F)cn1)n2-c1ncccn1` [compound 1079, 6-{3-cyano-6-[(1,1-dideuterium)ethyl]-5-fluoro-1-(pyrimidin-2-yl)-1H-indol-2-yl}-N-[(2S)-1,1,1-trifluoro(2-deuterium)propan-2-yl]pyridine-3-sulfonamide] the value was less than 0.5 µM; for `C[C@H](NS(=O)(=O)c1ccc(-c2c(C#N)c3ccc(C4CC4)cc3n2-c2ncccn2)nc1)C(F)(F)F` [compound 650, 6-[3-cyano-6-cyclopropyl-1-(pyrimidin-2-yl)-1H-indol-2-yl]-N-[(2S)-1,1,1-trifluoropropan-2-yl]pyridine-3-sulfonamide], less than 0.5 µM; for `C[C@@H](C1CC1)n1c(-c2ccc(NS(=O)(=O)C(C)(C)C)nc2)c(C(=O)O)c2cc(F)c(OC(F)F)cc21` [compound 1080, 2-{6-[(tert-butylsulfonyl)amino]pyridin-3-yl}-1-[(1S)-1-cyclopropylethyl]-6-(difluoromethoxy)-5-fluoro-1H-indole-3-carboxylic acid], 0.5 to 2 µM.
As to `N#Cc1c(-c2ccc(S(=O)(=O)NC(CF)CF)cn2)n(CC2CC2)c2ccc(Cl)cc12` [compound 73, 6-[5-chloro-3-cyano-1-(cyclopropylmethyl)-1H-indol-2-yl]-N-(1,3-difluoropropan-2-yl)pyridine-3-sulfonamide], the IC50 was less than 0.5 µM.
Take `CC(C)(C)NS(=O)(=O)c1ccc(-c2c(C#N)c3cc(F)c(OC(F)F)cc3n2C2CCC2)nc1` [compound 720, N-tert-butyl-6-[3-cyano-1-cyclobutyl-6-(difluoromethoxy)-5-fluoro-1H-indol-2-yl]pyridine-3-sulfonamide]: the IC50 is less than 0.5 µM.
As for `CC(=O)c1cc2c(cc1F)c(C(C)=O)c(-c1ccc(S(=O)(=O)NC(C)(C)C)cn1)n2-c1ncccn1` [compound 939, N-tert-butyl-6-(3,6-diacetyl-5-fluoro-1-(pyrimidin-2-yl)-1H-indol-2-yl)pyridine-3-sulfonamide], the figure is 2 to 5 µM.
For `COC(=O)c1c(-c2ccc(S(=O)(=O)N[C@@H](C)C(F)(F)F)cn2)n(C2CCC2)c2cc(C)c(F)cc12` [compound 771, methyl 1-cyclobutyl-5-fluoro-6-methyl-2-(5-{[(2S)-1,1,1-trifluoropropan-2-yl]sulfamoyl}pyridin-2-yl)-1H-indole-3-carboxylate] the value was less than 0.5 µM.
Turning to `Cc1cc2c(cc1F)cc(-c1ccc(S(=O)(=O)N[C@@H](C)C(F)(F)F)cn1)n2-c1ncco1` [compound 1059, 6-[5-fluoro-6-methyl-1-(1,3-oxazol-2-yl)-1H-indol-2-yl]-N-[(2S)-1,1,1-trifluoropropan-2-yl]pyridine-3-sulfonamide], the IC50 was less than 0.5 µM.
As for `C[C@H](NS(=O)(=O)c1ccc(-c2c(C#N)c3cc(Cl)ccc3n2C2CCCC2)nc1)C1CC1` [compound 118, 6-(5-chloro-3-cyano-1-cyclopentyl-1H-indol-2-yl)-N-[(1S)-1-cyclopropylethyl]pyridine-3-sulfonamide], the figure is less than 0.5 µM.
For `CC(C)NS(=O)(=O)c1cnc(-c2c(C#N)c3ccc(Cl)cc3n2C2CCCC2)nc1` [compound 189, 2-(6-chloro-3-cyano-1-cyclopentyl-1H-indol-2-yl)-N-(propan-2-yl)pyrimidine-5-sulfonamide], the IC50 is less than 0.5 µM.
For `[2H]C(C)(C)NS(=O)(=O)c1ccc(-c2c(C#N)c3cc(F)c(C([2H])([2H])[2H])cc3n2CC2CC2)nc1` [compound 1119, 6-[3-cyano-1-(cyclopropylmethyl)-5-fluoro-6-(1,1,1-trideuterium)methyl-1H-indol-2-yl]-N-[(2-deuterium)propan-2-yl]pyridine-3-sulfonamide], the IC50 was less than 0.5 µM.
For `CCc1cc2c(cc1F)c(C(N)=O)c(-c1ccc(S(=O)(=O)N[C@@H](C)C(F)(F)F)cn1)n2-c1ccc(Cl)cn1` [compound 1043, 1-(5-chloropyridin-2-yl)-6-ethyl-5-fluoro-2-(5-{[(2S)-1,1,1-trifluoropropan-2-yl]sulfamoyl}pyridin-2-yl)-1H-indole-3-carboxamide] the value was less than 0.5 µM; for `Cc1cc2c(cc1F)cc(-c1ccc(S(=O)(=O)N[C@@H](C)C(F)(F)F)cn1)n2-c1cncs1` [compound 959, 6-[5-fluoro-6-methyl-1-(1,3-thiazol-5-yl)-1H-indol-2-yl]-N-[(2S)-1,1,1-trifluoropropan-2-yl]pyridine-3-sulfonamide], less than 0.5 µM; for `Cc1cc2c(cc1F)c(C#N)c(-c1ncc(S(=O)(=O)N[C@@H](C)C(F)(F)F)cn1)n2C1CCOCC1` [compound 753, 2-[3-cyano-5-fluoro-6-methyl-1-(tetrahydro-2H-pyran-4-yl)-1H-indol-2-yl]-N-[(2S)-1,1,1-trifluoropropan-2-yl]pyrimidine-5-sulfonamide], less than 0.5 µM.
For the molecule `[2H]C([2H])(C)c1cc2c(cc1F)c(C#N)c(-c1ccc(S(=O)(=O)N[C@@H](C)C(F)(F)F)cn1)n2-c1ncccn1` [compound 1078, 6-{3-cyano-6-[(1,1-dideuterium)ethyl]-5-fluoro-1-(pyrimidin-2-yl)-1H-indol-2-yl}-N-[(2S)-1,1,1-trifluoropropan-2-yl]pyridine-3-sulfonamide], the IC50 was less than 0.5 µM.
On to `N#Cc1c(-c2ccc(S(=O)(=O)NC3CC(F)(F)C3)cn2)n(C2CCC2)c2ccc(Cl)cc12` [compound 243, 6-(5-chloro-3-cyano-1-cyclobutyl-1H-indol-2-yl)-N-(3,3-difluorocyclobutyl)pyridine-3-sulfonamide], for which the IC50 lay within 0.5 to 2 µM.
As to `N#Cc1c(-c2ccc(S(=O)(=O)NC(CF)CF)cn2)n(C2CCCC2)c2c(Cl)cccc12` [compound 88, 6-(7-chloro-3-cyano-1-cyclopentyl-1H-indol-2-yl)-N-(1,3-difluoropropan-2-yl)pyridine-3-sulfonamide], the IC50 is less than 0.5 µM.
As for `CC(C)(NS(=O)(=O)c1ccc(-c2c(C#N)c3cc(F)c(OC(F)F)cc3n2C2CCCC2)nc1)C(F)(F)F` [compound 862, 6-[3-cyano-1-cyclopentyl-6-(difluoromethoxy)-5-fluoro-1H-indol-2-yl]-N-(1,1,1-trifluoro-2-methylpropan-2-yl)pyridine-3-sulfonamide], the figure is less than 0.5 µM.
